Patent publication US20170333391A1, “METHOD FOR DELAYING THE ONSET OF PULMONARY FIBROSIS OR TREATING PULMONARY FIBROSIS” (EVERFRONT BIOTECH INC., priority 2016, published 2017)

Experiments:
α-SMA = α-SMA mRNA expression in NHLF, Q-PCR (3-2); assay type: cell-based, human; details: 24 hours
Protocol: Normal Human lung fibroblasts (NHLF) were seeded into 6-well plate at a density of 10^5 cells/well, comprising a control group and five experimental groups (6 wells in total). The cells were cultured until the next day, and then the mediums were removed. Each group was respectively treated under the following conditions to conduct follow-up experiments: • (1) Control group: cells were cultured in a FGM-2 medium containing 1% serum for 24 hours; • (2) Group α: cells were cultured in a FGM-2 medium containing 1% serum and compound (1) (5 μg/ml) for 24 hours; • (3) Group β: cells were cultured in a FGM-2 medium containing 1% serum and compound (1) (10 μg/ml) for 24 hours; • (4) Group γ: cells were cultured in a F-12K medium containing 1% serum and H2O2 (0.1 mM) for 24 hours; • (5) Group δ: cells were cultured in a F-12K medium containing 1% serum, H2O2 (0.1 mM) and compound (1) (5 μg/ml) for 24 hours; and • (6) Group ε: cells were cultured in a F-12K medium containing 1% serum, H2O2 (0.1 mM) and compound (1) (10 μg/ml) for 24 hours.
Thereafter, the total RNA of cells taken from each group were extracted, and then reverse transcription was conducted on the total RNA by using a QuantiTect Reverse Transcription Kit to obtain cDNA therefrom. A Q-PCR was then conducted on the cDNA to analyze the mRNA expression levels of genes such as α-SMA and TGF-β, wherein GAPDH gene served as an internal control. The results of the control group served as the basis for calculating the relative expression levels of the other groups.

TGF-β protein = TGF-β protein expression in TGF-β1-induced NHLF, western blotting (Example 4); assay type: cell-based, human; details: uninduced control = 1, TGF-β1-only group A = 1.75
Protocol: Normal Human lung fibroblasts (NHLF) were seeded into 6 cm culture dishes at a density of 2×10^5 cells/dish, comprising a control group and five experimental groups (6 dishes in total). The cells were cultured until the next day, and then the mediums were removed. Each group was respectively treated under the following conditions to conduct follow-up experiments: • (1) Control group: cells were cultured in a FGM-2 medium containing 1% serum for 36 hours; • (2) Group A: cells were cultured in a FGM-2 medium containing 1% serum and TGF-β1 (5 ng/ml) for 36 hours; • (3) Group B: cells were firstly cultured in a FGM-2 medium containing 1% serum and TGF-β1 (5 ng/ml) for 12 hours, and then compound (1) was added into the medium to provide a final concentration of 15 μg/ml; thereafter, the cells were cultured for another 24 hours; • (4) Group C: cells were firstly cultured in a FGM-2 medium containing 1% serum and TGF-β1 (5 ng/ml) for 12 hours, and then compound (1) was added into the medium to provide a final concentration of 30 μg/ml; thereafter, the cells were cultured for another 24 hours; • (5) Group D: cells were firstly cultured in a FGM-2 medium containing 1% serum and TGF-β1 (5 ng/ml) for 12 hours, and then compound (2) was added into the medium to provide a final concentration of 100 μg/ml; thereafter, the cells were cultured for another 24 hours; and • (6) Group E: cells were firstly cultured in a FGM-2 medium containing 1% serum and TGF-β1 (5 ng/ml) for 12 hours, and then compound (2) was added into the medium to provide a final concentration of 200 μg/ml; thereafter, the cells were cultured for another 24 hours.
Thereafter, the proteins in the cells of each group were extracted, and the expressions of BMP-7 protein, TGF-β protein and p-smad2/3 protein in the NHLF cells of each group were measured with western blotting. The results of the control group served as the basis for calculating the relative expression levels of the other groups.

[1] = system: C57B/L6 mice injected with Bleomycin sulfate (inducer of pulmonary fibrosis); assay: Pulmonary fibrosis score (Ashcroft, 0 to 8) in Bleomycin sulfate mice; assay type: in vivo; details: compared to oil group
Protocol: 24 C57B/L6 mice (age: four weeks) were separated into four groups (6 mice in each group). […]
After completing the measurement of the pulmonary function in Example 6, the mice were sacrificed. […] One of the two groups was preserved at −20° C. for the follow-up experiment, and the other group was analyzed by hematoxylin-sosin stain (H&E stain). […]

Question: Which results are given for `CCCC=C1OC(=O)c2ccccc21` [compound (1)]?
Answer: Relative expression level (fold) α-SMA (α-SMA; Group α: mRNA, FGM-2 medium 1% serum + compound (1) 5 μg/ml, control group = 1): 0.46 fold; Relative expression level (fold) α-SMA (α-SMA; Group β: mRNA, FGM-2 medium 1% serum + compound (1) 10 μg/ml, control group = 1): 0.64 fold; Relative expression level (fold) α-SMA (α-SMA; Group δ: mRNA, F-12K medium 1% serum + H2O2 0.1 mM + compound (1) 5 μg/ml, control group = 1, H2O2-only group γ = 0.92): 0.56 fold; Relative expression level (fold) α-SMA (α-SMA; Group ε: mRNA, F-12K medium 1% serum + H2O2 0.1 mM + compound (1) 10 μg/ml, control group = 1, H2O2-only group γ = 0.92): 0.37 fold; Relative expression level (fold) TGF-β protein (TGF-β protein; Group B: TGF-β1 5 ng/ml 12 h, then compound (1) 15 μg/ml 24 h): 1.27 fold; Relative expression level (fold) TGF-β protein (TGF-β protein; Group C: TGF-β1 5 ng/ml 12 h, then compound (1) 30 μg/ml 24 h): 1.34 fold; pulmonary fibrosis score ([1]; High-dose group, compound (1) 50 mg/kg orally daily 30 days): significantly decreased; pulmonary fibrosis score ([1]; Low-dose group, compound (1) 10 mg/kg orally daily 30 days): significantly decreased
